pKi: −log10 of the molar value.
Key:
[1] = molecular target: T1, human dopamine D2L receptors (long isoform) (Homo sapiens, UniProt P14416); experiment: Dopamine D2L receptor binding ([125I]iodospiperone displacement); conditions: selectivity ratio, human D2L vs human D3 binding
T1 construct: expressed in transfected cells; host or cells: HEK-293
Description: (§1) The substance to be tested was either dissolved in methanol/Chremophor® (BASF SE) or in dimethyl sulfoxide and then diluted with water to the desired concentration.
(§2) Each assay mixture was run in triplicate. • The incubation buffer contained 50 mM tris, 120 mM NaCl, 5 mM KCl, 2 mM CaCl2, 2 mM MgCl2 and 0.1% bovine serum albumin, 10 μM quinolone and 0.1% ascorbic acid (prepared fresh daily). […] Each assay mixture was run in triplicate. • The incubation buffer contained 50 mM tris, 120 mM NaCl, 5 mM KCl, 2 mM CaCl2, 2 mM MgCl2 and 0.1% bovine serum albumin. The buffer was adjusted to pH 7.4 with HCl. c) Measurement and analysis: • After having been incubated at 25° C. for 60 minutes, the assay mixtures were filtered through a Whatman GF/B glass fiber filter under vacuum using a cell col-lecting device. The filters were transferred to scintillation viols using a filter transfer system. After 4 ml of Ultima Gold® (Packard) have been added, the samples were shaken for one hour and the radioactivity was then counted in a Beta-Counter (Packard, Tricarb 2000 or 2200CA).

[2] = molecular target: T2, human dopamine D3 receptors (Homo sapiens, UniProt P35462); experiment: Dopamine D3 receptor binding ([125I]-iodosulpride displacement); conditions: membranes of HEK-293 cells with human D3 receptors, 0.1 nM [125I]-iodosulpride
T2 construct: expressed in transfected cells; host or cells: HEK-293
T2 sequence (P35462 whole entry): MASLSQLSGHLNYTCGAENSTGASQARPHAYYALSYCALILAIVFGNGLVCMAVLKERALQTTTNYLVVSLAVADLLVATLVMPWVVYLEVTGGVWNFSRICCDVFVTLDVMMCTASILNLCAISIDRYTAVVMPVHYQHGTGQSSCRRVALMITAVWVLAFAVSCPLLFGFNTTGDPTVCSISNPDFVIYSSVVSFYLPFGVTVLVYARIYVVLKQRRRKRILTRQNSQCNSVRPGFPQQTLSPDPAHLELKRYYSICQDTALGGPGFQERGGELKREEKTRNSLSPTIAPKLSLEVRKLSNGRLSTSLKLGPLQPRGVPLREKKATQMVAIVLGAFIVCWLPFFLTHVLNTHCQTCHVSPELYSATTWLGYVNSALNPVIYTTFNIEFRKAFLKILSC
Description: as §1, §2

[3] = Determination of the microsomal half-life / microsomal clearance; type: in vitro ADME; conditions: pH 7.4; human liver microsomes, 0.5 μM test substance, 0.25 mg protein/ml, NADPH, 37° C.; read-out: Human mCl (mikrosomal clearance)
Description: The metabolic stability of the compounds of the invention was determined in the following assay.
The test substances were incubated in a concentration of 0.5 μM as follows:
0.5 μM test substance are preincubated together with liver microsomes from different species (from rat, human or other species) (0.25 mg of microsomal protein/ml) in 0.05 M potassium phosphate buffer of pH 7.4 in microtiter plates at 37° C. for 5 min. The reaction is started by adding NADPH (1 mg/mL). After 0, 5, 10, 15, 20 and 30 min, 50 μl aliquots are removed, and the reaction is immediately stopped and cooled with the same volume of acetonitrile. The samples are frozen until analyzed. The remaining concentration of undegraded test substance is determined by MSMS. The half-life (T1/2) is determined from the gradient of the signal of test substance/unit time plot, it being possible to calculate the half-life of the test substance, assuming first order kinetics, from the decrease in the concentration of the compound with time. The microsomal clearance (mC1) is calculated from mC1=1n2/T1/2/(content of microsomal protein in mg/ml)×1000 [ml/min/mg] (modified from references: Di, The Society for Biomoleculur Screening, 2003, 453-462; Obach, DMD, 1999 vol 27. N 11, 1350-1359).

T1 sequence (P14416 whole entry, canonical isoform): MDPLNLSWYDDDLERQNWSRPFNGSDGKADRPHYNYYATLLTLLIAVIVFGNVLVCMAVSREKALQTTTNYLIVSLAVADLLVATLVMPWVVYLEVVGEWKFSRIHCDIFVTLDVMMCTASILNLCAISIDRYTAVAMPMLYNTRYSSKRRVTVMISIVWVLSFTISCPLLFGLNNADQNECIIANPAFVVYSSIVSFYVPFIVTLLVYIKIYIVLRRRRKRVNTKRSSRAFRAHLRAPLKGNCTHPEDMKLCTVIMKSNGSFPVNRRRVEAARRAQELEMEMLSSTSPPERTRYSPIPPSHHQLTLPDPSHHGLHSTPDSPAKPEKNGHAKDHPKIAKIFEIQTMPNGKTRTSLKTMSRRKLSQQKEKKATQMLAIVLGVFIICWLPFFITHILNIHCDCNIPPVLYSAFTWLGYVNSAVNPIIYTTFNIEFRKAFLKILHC

Row | Structure (SMILES) | D2/D3, Ki (D2L)/Ki (D3) [1] | pKi [2] | microsomal CLint at 0.5 μM [3] [µL/min/mg]
1 | CO[C@H]1C[C@H](C(=O)NC2CCC(CCN3CCN(c4cc(C(C)C)nc(C(C)(C)C)n4)CC3)CC2)C1 (relative stereo) [Compound 49, Trans-N-[4-[2-[4-(2-tert-butyl-6-isopropyl-pyrimidin-4-yl)-piperazin-1-yl]ethyl]cyclohexyl]-3-methoxy-cyclobutanecarboxamide] | +++ (+++ >50) | > 8.00 | 
2 | CC(C)c1cc(N2CCN(CCC3CCC(NC(=O)[C@H]4C[C@H](O)C4)CC3)CC2)nc(C(C)(C)C)n1 (relative stereo) [Compound 50, Trans-N-[4-[2-[4-(2-tert-butyl-6-isopropyl-pyrimidin-4-yl)-piperazin-1-yl]ethyl]cyclohexyl]-3-hydroxy-cyclobutanecarboxamide] | +++ (+++ >50) | > 8.00 | 
3 | CC(C)(C)c1nc(C(F)F)cc(N2CCN(CCC3CCC(NC(=O)C4CCC(O)CC4)CC3)CC2)n1 (centres unmarked) [Compound 29, N-[4-[2-[4-[2-tert-butyl-6-(difluoromethyl)pyrimidin-4-yl]piperazin-1-yl]ethyl]cyclohexyl]-4-hydroxy-cyclohexanecarboxamide] | + (+ >10) |  | 20 to 120
4 | CC(C)(C)c1nc(C(F)F)cc(N2CCN(CC[C@H]3CC[C@@H](NC(=O)[C@H]4CC[C@H](O)CC4)CC3)CC2)n1 [Compound 30, Trans-N-[cis-4-[2-[4-[2-tert-butyl-6-(difluoromethyl)pyrimidin-4-yl]piperazin-1-yl]ethyl]cyclohexyl]-4-hydroxy-cyclohexanecarboxamide] | ++ (++ >20) |  | 20 to 120
5 | CC(C)c1cc(N2CCN(CCC3CCC(NC(=O)C4CCC(O)CC4)CC3)CC2)nc(C(C)(C)C)n1 (centres unmarked) [Compound 31, N-[4-[2-[4-(2-tert-butyl-6-isopropyl-pyrimidin-4-yl)piperazin-1-yl]ethyl]cyclohexyl]-4-hydroxy-cyclohexanecarboxamide] | ++ (++ >20) |  | 20 to 120
6 | CC(C)c1cc(N2CCN(CC[C@H]3CC[C@H](NC(=O)[C@H]4CC[C@H](O)CC4)CC3)CC2)nc(C(C)(C)C)n1 [Compound 32, Trans-N-[trans-4-[2-[4-(2-tert-butyl-6-isopropyl-pyrimidin-4-yl)piperazin-1-yl]ethyl]cyclohexyl]-4-hydroxy-cyclohexanecarboxamide] | ++ (++ >20) |  | 20 to 120
7 | COCCc1cc(N2CCN(CCC3CCC(NC(=O)C4CCC(O)CC4)CC3)C[C@H]2C)nc(C(C)(C)C)n1 (stereo partly drawn) [Compound 33, N-[4-[2-[(3R)-4-[2-tert-butyl-6-(2-methoxyethyl)pyrimidin-4-yl]-3-methyl-piperazin-1-yl]ethyl]cyclohexyl]-4-hydroxy-cyclohexanecarboxamide] | +++ (+++ >50) |  | 20 to 120
8 | COCCc1cc(N2CCN(CC[C@H]3CC[C@H](NC(=O)[C@H]4CC[C@H](O)CC4)CC3)C[C@H]2C)nc(C(C)(C)C)n1 [Compound 34, trans-N-[trans-4-[2-[(3R)-4-[2-tert-butyl-6-(2-methoxyethyl)pyrimidin-4-yl]-3-methyl-piperazin-1-yl]ethyl]cyclohexyl]-4-hydroxy-cyclohexanecarboxamide] | +++ (+++ >50) |  | 20 to 120
9 | CC(C)(C)c1nc(C2CCCC2)cc(N2CCN(CC[C@H]3CC[C@H](NC(=O)[C@H]4CC[C@H](O)CC4)CC3)CC2)n1 [Compound 35, trans-N-[trans-4-[2-[4-(2-tert-butyl-6-cyclopentyl-pyrimidin-4-yl)piperazin-1-yl]ethyl]cyclohexyl]-4-hydroxy-cyclohexanecarboxamide] | + (+ >10) |  | 20 to 120
10 | CC(C)(C)c1nc(C2CCCC2)cc(N2CCN(CC[C@H]3CC[C@@H](NC(=O)[C@H]4CC[C@H](O)CC4)CC3)CC2)n1 [Compound 36, trans-N-[cis-4-[2-[4-(2-tert-butyl-6-cyclopentyl-pyrimidin-4-yl)piperazin-1-yl]ethyl]cyclohexyl]-4-hydroxy-cyclohexanecarboxamide] | +++ (+++ >50) |  | 20 to 120
11 | COCc1cc(N2CCN(CC[C@H]3CC[C@H](NC(=O)[C@H]4CC[C@H](O)CC4)CC3)CC2)nc(C(C)(C)C)n1 [Compound 37, trans-N-[trans-4-[2-[4-[2-tert-butyl-6-(methoxymethyl)pyrimidin-4-yl]piperazin-1-yl]ethyl]cyclohexyl]-4-hydroxy-cyclohexanecarboxamide] | +++ (+++ >50) |  | 20 to 120
12 | CC(C)(C)c1nc(C2CCC2)cc(N2CCN(CC[C@H]3CC[C@H](NC(=O)[C@H]4C[C@H](O)C4)CC3)CC2)n1.O=C(O)C(F)(F)F [Compound 38, trans-N-[trans-4-[2-[4-(2-tert-butyl-6-cyclobutyl-pyrimidin-4-yl)piperazin-1-yl]ethyl]cyclohexyl]-3-hydroxy-cyclobutanecarboxamide; 2,2,2-trifluoroacetic acid] | ++ (++ >20) |  | < 20
13 | CC(C)(C)c1nc(C2CCC2)cc(N2CCN(CC[C@H]3C[C@H](NC(=O)[C@H]4C[C@H](O)C4)C3)CC2)n1.O=C(O)C(F)(F)F [Compound 39, trans-N-[trans-3-[2-[4-(2-tert-butyl-6-cyclobutyl-pyrimidin-4-yl)piperazin-1-yl]ethyl]cyclobutyl]-3-hydroxy-cyclobutanecarboxamide; 2,2,2-trifluoroacetic acid] | +++ (+++ >50) |  | < 20
14 | CC(C)c1cc(N2CCN(CC[C@H]3CC[C@H](NC(=O)[C@H]4CC[C@H](O)CC4)CC3)C[C@@H]2C)nc(C(C)(C)C)n1 [Compound 41, Trans-N-[4-[2-[(3S)-4-(2-tert-butyl-6-isopropyl-pyrimidin-4-yl)-3-methyl-piperazin-1-yl]ethyl]cyclohexyl]-trans-4-hydroxy-cyclohexanecarboxamide] | +++ (+++ >50) | > 8.00 | 
15 | CC(C)c1cc(N2CCN(CCC3CC(NC(=O)[C@H]4CC[C@H](O)CC4)C3)C[C@@H]2C)nc(C(C)(C)C)n1 (stereo partly drawn) [Compound 42, N-[3-[2-[(3S)-4-(2-tert-butyl-6-isopropyl-pyrimidin-4-yl)-3-methyl-piperazin-1-yl]ethyl]cyclobutyl]-trans-4-hydroxy-cyclohexanecarboxamide] | +++ (+++ >50) | > 8.00 | 
16 | CC(C)c1cc(N2CCN(CC[C@H]3CC[C@@H](NC(=O)[C@H]4CC[C@H](O)CC4)CC3)CC2)nc(C(C)(C)C)n1 [Compound 43, Cis-N-[4-[2-[4-(2 tert-butyl-6-isopropyl-pyrimidin-4-yl)piperazin-1-yl]ethyl]cyclohexyl]-trans-4-hydroxy-cyclohexanecarboxamide] | +++ (+++ >50) | > 8.00 | 
17 | C[C@H]1CN(CC[C@H]2CC[C@@H](NC(=O)[C@H]3CC[C@H](O)CC3)CC2)CCN1c1cc(C(F)F)nc(C(C)(C)C)n1 [Compound 44, Cis-N-[4-[2-[(3S)-4-[2-tert-butyl-6-(difluoromethyl)pyrimidin-4-yl]-3-methyl-piperazin-1-yl]ethyl]cyclohexyl]-trans-4-hydroxy-cyclohexanecarboxamide] | +++ (+++ >50) | > 8.00 | 
18 | CC(C)c1cc(N2CCN(CCC3CC[C@H](NC(=O)[C@H]4CC[C@H](O)CC4)C3)C[C@@H]2C)nc(C(C)(C)C)n1 (stereo partly drawn) [Compound 45, Trans-N-[(1S)-3-[2-[(3S)-4-(2-tert-butyl-6-isopropyl-pyrimidin-4-yl)-3-methyl-piperazin-1-yl]ethyl]cyclopentyl]-4-hydroxy-cyclohexanecarboxamide] | +++ (+++ >50) | > 8.00 | 
19 | CC(C)c1cc(N2CCN(CCC3CCC(NC(=O)[C@H]4CC[C@H](O)CC4)CC3)C[C@@H]2C)nc(C(C)(C)C)n1 (stereo partly drawn) [Compound 46, Trans-N-[4-[2-[(3S)-4-(2-tert-butyl-6-isopropyl-pyrimidin-4-yl)-3-methyl-piperazin-1-yl]ethyl]cyclohexyl]-4-hydroxy-cyclohexanecarboxamide] | +++ (+++ >50) | > 8.00 | 

— patent publication US9388148B2, “Acylaminocycloalkyl compounds suitable for treating disorders that respond to modulation of dopamine D3 receptor” (AbbVie Deutschland GmbH & Co. KG, priority 2013, dated 2016)
